Reference: the NIST ThermoML archive (doi:10.1021/je300945r)
± gives the expanded uncertainty stated by the source.

For `F/C=C/C(F)(F)F` [trans-1,3,3,3-tetrafluoropropene], the mass density (242.91 K, 56.6 kPa, Gas, isochoric method) was 3.322 ± 0.11 kg/m3, the mass density (242.91 K, 56.7 kPa, Gas, isochoric method) was 3.322 ± 0.11 kg/m3 and the mass density (252.89 K, 59.4 kPa, Gas, isochoric method) was 3.322 ± 0.11 kg/m3. For the same molecule, the mass density (252.9 K, 59.4 kPa, Gas, isochoric method) was 3.322 ± 0.11 kg/m3, the mass density (262.9 K, 62 kPa, Gas, isochoric method) was 3.311 ± 0.11 kg/m3 and the mass density (262.91 K, 61.9 kPa, Gas, isochoric method) was 3.311 ± 0.11 kg/m3. The mass density (262.94 K, 139.4 kPa, Gas, isochoric method) was 7.692 ± 0.11 kg/m3, the mass density (262.95 K, 139.4 kPa, Gas, isochoric method) was 7.692 ± 0.11 kg/m3 and the mass density (272.84 K, 64.4 kPa, Gas, isochoric method) was 3.311 ± 0.11 kg/m3. It also gave a mass density (272.85 K, 64.4 kPa, Gas, isochoric method) of 3.311 ± 0.11 kg/m3, a mass density (272.87 K, 145.5 kPa, Gas, isochoric method) of 7.634 ± 0.11 kg/m3 and a mass density (282.6 K, 151.4 kPa, Gas, isochoric method) of 7.634 ± 0.11 kg/m3. For the same molecule, the mass density (282.63 K, 66.9 kPa, Gas, isochoric method) was 3.311 ± 0.1 kg/m3, the mass density (282.66 K, 238.8 kPa, Gas, isochoric method) was 12.5 ± 0.11 kg/m3 and the mass density (283.14 K, 1620 kPa, Liquid, Vibrating tube method) was 1214.3 ± 1.6 kg/m3. For the same molecule, the mass density (283.14 K, 2638 kPa, Liquid, Vibrating tube method) was 1218.5 ± 1.6 kg/m3, the mass density (283.14 K, 3662 kPa, Liquid, Vibrating tube method) was 1222.4 ± 1.6 kg/m3 and the mass density (283.14 K, 5710 kPa, Liquid, Vibrating tube method) was 1229.8 ± 1.6 kg/m3. For the same molecule, the mass density (283.14 K, 6721 kPa, Liquid, Vibrating tube method) was 1233.2 ± 1.6 kg/m3, the mass density (283.14 K, 7725 kPa, Liquid, Vibrating tube method) was 1236.6 ± 1.6 kg/m3 and the mass density (283.14 K, 11789 kPa, Liquid, Vibrating tube method) was 1249.5 ± 1.6 kg/m3. It also gave a mass density (283.14 K, 12805 kPa, Liquid, Vibrating tube method) of 1252.4 ± 1.6 kg/m3, a mass density (283.14 K, 15859 kPa, Liquid, Vibrating tube method) of 1261.2 ± 1.7 kg/m3 and a mass density (283.14 K, 16870 kPa, Liquid, Vibrating tube method) of 1263.9 ± 1.7 kg/m3. It also gave a mass density (283.14 K, 18876 kPa, Liquid, Vibrating tube method) of 1269.4 ± 1.7 kg/m3, a mass density (283.14 K, 20909 kPa, Liquid, Vibrating tube method) of 1274.5 ± 1.7 kg/m3 and a mass density (283.15 K, 619 kPa, Liquid, Vibrating tube method) of 1210.5 ± 1.6 kg/m3. For the same molecule, the mass density (283.15 K, 4689 kPa, Liquid, Vibrating tube method) was 1226.1 ± 1.6 kg/m3, the mass density (283.15 K, 8745 kPa, Liquid, Vibrating tube method) was 1240 ± 1.6 kg/m3 and the mass density (283.15 K, 9760 kPa, Liquid, Vibrating tube method) was 1243.2 ± 1.6 kg/m3. For the same molecule, the mass density (283.15 K, 10765 kPa, Liquid, Vibrating tube method) was 1246.5 ± 1.6 kg/m3, the mass density (283.15 K, 13827 kPa, Liquid, Vibrating tube method) was 1255.7 ± 1.7 kg/m3 and the mass density (283.15 K, 14841 kPa, Liquid, Vibrating tube method) was 1258.4 ± 1.7 kg/m3. It also gave a mass density (283.15 K, 17875 kPa, Liquid, Vibrating tube method) of 1266.7 ± 1.7 kg/m3, a mass density (283.15 K, 19891 kPa, Liquid, Vibrating tube method) of 1272 ± 1.7 kg/m3 and a mass density (283.15 K, 21921 kPa, Liquid, Vibrating tube method) of 1277.1 ± 1.7 kg/m3. The mass density (283.15 K, 22932 kPa, Liquid, Vibrating tube method) was 1279.6 ± 1.7 kg/m3, the mass density (283.15 K, 23948 kPa, Liquid, Vibrating tube method) was 1281.9 ± 1.7 kg/m3 and the mass density (283.15 K, 24959 kPa, Liquid, Vibrating tube method) was 1284.4 ± 1.7 kg/m3. It also gave a mass density (283.15 K, 25966 kPa, Liquid, Vibrating tube method) of 1286.7 ± 1.7 kg/m3, a mass density (283.15 K, 26982 kPa, Liquid, Vibrating tube method) of 1289.1 ± 1.7 kg/m3 and a mass density (283.15 K, 27984 kPa, Liquid, Vibrating tube method) of 1291.3 ± 1.7 kg/m3. It also gave a mass density (283.15 K, 28987 kPa, Liquid, Vibrating tube method) of 1293.4 ± 1.7 kg/m3, a mass density (283.15 K, 30001 kPa, Liquid, Vibrating tube method) of 1295.7 ± 1.7 kg/m3 and a mass density (283.15 K, 31009 kPa, Liquid, Vibrating tube method) of 1297.8 ± 1.7 kg/m3. For the same molecule, the mass density (283.15 K, 32017 kPa, Liquid, Vibrating tube method) was 1300.1 ± 1.7 kg/m3, the mass density (283.15 K, 33020 kPa, Liquid, Vibrating tube method) was 1302.1 ± 1.7 kg/m3 and the mass density (283.15 K, 34022 kPa, Liquid, Vibrating tube method) was 1304.2 ± 1.7 kg/m3. The mass density (292.54 K, 157.2 kPa, Gas, isochoric method) was 7.634 ± 0.1 kg/m3, the mass density (292.56 K, 248.7 kPa, Gas, isochoric method) was 12.5 ± 0.11 kg/m3 and the mass density (292.56 K, 248.8 kPa, Gas, isochoric method) was 12.5 ± 0.11 kg/m3. The mass density (292.76 K, 366.1 kPa, Gas, isochoric method) was 19.231 ± 0.12 kg/m3, the mass density (292.83 K, 415.4 kPa, Gas, isochoric method) was 22.222 ± 0.12 kg/m3 and the mass density (293.14 K, 778 kPa, Liquid, Vibrating tube method) was 1179.9 ± 1.6 kg/m3. The mass density (293.14 K, 1644 kPa, Liquid, Vibrating tube method) was 1184.2 ± 1.6 kg/m3, the mass density (293.14 K, 2650 kPa, Liquid, Vibrating tube method) was 1188.7 ± 1.6 kg/m3 and the mass density (293.14 K, 4727 kPa, Liquid, Vibrating tube method) was 1197.6 ± 1.6 kg/m3. It also gave a mass density (293.14 K, 5738 kPa, Liquid, Vibrating tube method) of 1201.8 ± 1.6 kg/m3, a mass density (293.14 K, 6755 kPa, Liquid, Vibrating tube method) of 1205.9 ± 1.6 kg/m3 and a mass density (293.14 K, 7761 kPa, Liquid, Vibrating tube method) of 1209.7 ± 1.6 kg/m3. For the same molecule, the mass density (293.14 K, 8772 kPa, Liquid, Vibrating tube method) was 1213.4 ± 1.6 kg/m3, the mass density (293.14 K, 10798 kPa, Liquid, Vibrating tube method) was 1220.7 ± 1.6 kg/m3 and the mass density (293.14 K, 12817 kPa, Liquid, Vibrating tube method) was 1227.5 ± 1.6 kg/m3. It also gave a mass density (293.14 K, 13830 kPa, Liquid, Vibrating tube method) of 1230.8 ± 1.6 kg/m3, a mass density (293.14 K, 15838 kPa, Liquid, Vibrating tube method) of 1236.9 ± 1.6 kg/m3 and a mass density (293.14 K, 16853 kPa, Liquid, Vibrating tube method) of 1240.1 ± 1.7 kg/m3. It also gave a mass density (293.14 K, 17857 kPa, Liquid, Vibrating tube method) of 1243 ± 1.7 kg/m3, a mass density (293.14 K, 20900 kPa, Liquid, Vibrating tube method) of 1251.6 ± 1.7 kg/m3 and a mass density (293.14 K, 21921 kPa, Liquid, Vibrating tube method) of 1254.3 ± 1.7 kg/m3. For the same molecule, the mass density (293.14 K, 22938 kPa, Liquid, Vibrating tube method) was 1257.2 ± 1.7 kg/m3, the mass density (293.14 K, 23953 kPa, Liquid, Vibrating tube method) was 1259.7 ± 1.7 kg/m3 and the mass density (293.14 K, 24957 kPa, Liquid, Vibrating tube method) was 1262.3 ± 1.7 kg/m3. It also gave a mass density (293.14 K, 31009 kPa, Liquid, Vibrating tube method) of 1277.1 ± 1.7 kg/m3, a mass density (293.14 K, 32027 kPa, Liquid, Vibrating tube method) of 1279.3 ± 1.7 kg/m3 and a mass density (293.15 K, 69.4 kPa, Gas, isochoric method) of 3.311 ± 0.099 kg/m3. For the same molecule, the mass density (293.15 K, 3682 kPa, Liquid, Vibrating tube method) was 1193.3 ± 1.6 kg/m3, the mass density (293.15 K, 9788 kPa, Liquid, Vibrating tube method) was 1217.1 ± 1.6 kg/m3 and the mass density (293.15 K, 11799 kPa, Liquid, Vibrating tube method) was 1223.9 ± 1.6 kg/m3. It also gave a mass density (293.15 K, 14835 kPa, Liquid, Vibrating tube method) of 1233.8 ± 1.6 kg/m3, a mass density (293.15 K, 18879 kPa, Liquid, Vibrating tube method) of 1246.2 ± 1.7 kg/m3 and a mass density (293.15 K, 19891 kPa, Liquid, Vibrating tube method) of 1248.9 ± 1.7 kg/m3. For the same molecule, the mass density (293.15 K, 25973 kPa, Liquid, Vibrating tube method) was 1264.9 ± 1.7 kg/m3, the mass density (293.15 K, 26985 kPa, Liquid, Vibrating tube method) was 1267.4 ± 1.7 kg/m3 and the mass density (293.15 K, 27991 kPa, Liquid, Vibrating tube method) was 1270 ± 1.7 kg/m3. The mass density (293.15 K, 28993 kPa, Liquid, Vibrating tube method) was 1272.4 ± 1.7 kg/m3, the mass density (293.15 K, 30001 kPa, Liquid, Vibrating tube method) was 1274.8 ± 1.7 kg/m3 and the mass density (293.15 K, 33027 kPa, Liquid, Vibrating tube method) was 1281.7 ± 1.7 kg/m3. It also gave a mass density (293.15 K, 34035 kPa, Liquid, Vibrating tube method) of 1284 ± 1.7 kg/m3, a mass density (293.16 K, 69.4 kPa, Gas, isochoric method) of 3.311 ± 0.099 kg/m3 and a mass density (302.54 K, 258.5 kPa, Gas, isochoric method) of 12.5 ± 0.11 kg/m3. For the same molecule, the mass density (302.54 K, 258.6 kPa, Gas, isochoric method) was 12.5 ± 0.11 kg/m3, the mass density (302.67 K, 71.8 kPa, Gas, isochoric method) was 3.311 ± 0.096 kg/m3 and the mass density (302.67 K, 162.7 kPa, Gas, isochoric method) was 7.634 ± 0.099 kg/m3. It also gave a mass density (302.69 K, 162.7 kPa, Gas, isochoric method) of 7.634 ± 0.099 kg/m3 and a mass density (302.78 K, 381.8 kPa, Gas, isochoric method) of 19.231 ± 0.11 kg/m3.
